Test: xn = mol fraction of the nth substance listed
Settings: 100 kPa, Liquid; for mass density: Vibrating tube method; for viscosity: Concentric cylinders viscometry

C[n+]1ccn(CCO)c1.F[B-](F)(F)F [1-(2-hydroxyethyl)-3-methylimidazolium tetrafluoroborate] + CCCCn1cc[n+](C)c1.F[B-](F)(F)F
Settings | mass density [kg/m3] | viscosity [mPa·s]
318.15 K, x1 = 0.101 | 1199.8 | –
318.15 K, x1 = 0.201 | 1213.5 | –
318.15 K, x1 = 0.3002 | 1227.8 | –
318.15 K, x1 = 0.4006 | 1243.6 | –
318.15 K, x1 = 0.5009 | 1258.1 | –
318.15 K, x1 = 0.5991 | 1274.1 | –
318.15 K, x1 = 0.7001 | 1293.8 | –
318.15 K, x1 = 0.8 | 1307.8 | –
318.15 K, x1 = 0.8995 | 1325.7 | –
318.15 K, x1 = 1 | 1343.7 | –
323.15 K, x1 = 0.1003 | – | 35.84
323.15 K, x1 = 0.101 | 1196.3 | –
323.15 K, x1 = 0.2001 | – | 35.27
323.15 K, x1 = 0.201 | 1209.9 | –
323.15 K, x1 = 0.2997 | – | 35.51
323.15 K, x1 = 0.3002 | 1224.2 | –
323.15 K, x1 = 0.3999 | – | 35.68
323.15 K, x1 = 0.4006 | 1240 | –
323.15 K, x1 = 0.4996 | – | 35.08
323.15 K, x1 = 0.5009 | 1254.5 | –
323.15 K, x1 = 0.5991 | 1270.4 | 35.69
323.15 K, x1 = 0.6997 | – | 35.78
323.15 K, x1 = 0.7001 | 1290.3 | –
323.15 K, x1 = 0.7999 | – | 36.02
323.15 K, x1 = 0.8 | 1304.1 | –
323.15 K, x1 = 0.8995 | 1322 | –
323.15 K, x1 = 0.8998 | – | 36.55
323.15 K, x1 = 1 | 1340.1 | 36.5
328.15 K, x1 = 0.1003 | – | 29.96
328.15 K, x1 = 0.101 | 1192.8 | –
328.15 K, x1 = 0.2001 | – | 29.52
328.15 K, x1 = 0.201 | 1206.5 | –
328.15 K, x1 = 0.2997 | – | 29.75
328.15 K, x1 = 0.3002 | 1220.7 | –
328.15 K, x1 = 0.3999 | – | 29.9
328.15 K, x1 = 0.4006 | 1236.4 | –
328.15 K, x1 = 0.4996 | – | 29.42
328.15 K, x1 = 0.5009 | 1250.9 | –
328.15 K, x1 = 0.5991 | 1266.8 | 29.91
328.15 K, x1 = 0.6997 | – | 29.95
328.15 K, x1 = 0.7001 | 1286.7 | –
328.15 K, x1 = 0.7999 | – | 30.13
328.15 K, x1 = 0.8 | 1300.5 | –
328.15 K, x1 = 0.8995 | 1318.3 | –
328.15 K, x1 = 0.8998 | – | 30.58
328.15 K, x1 = 1 | 1336.4 | 30.46
333.15 K, x1 = 0.1003 | – | 25.35
333.15 K, x1 = 0.101 | 1189.3 | –
333.15 K, x1 = 0.2001 | – | 25.03
333.15 K, x1 = 0.201 | 1203 | –
333.15 K, x1 = 0.2997 | – | 25.2
333.15 K, x1 = 0.3002 | 1217.2 | –
333.15 K, x1 = 0.3999 | – | 25.27
333.15 K, x1 = 0.4006 | 1232.9 | –
333.15 K, x1 = 0.4996 | – | 24.96
333.15 K, x1 = 0.5009 | 1247.6 | –
333.15 K, x1 = 0.5991 | 1263.2 | 25.36
333.15 K, x1 = 0.6997 | – | 25.41
333.15 K, x1 = 0.7001 | 1283.1 | –
333.15 K, x1 = 0.7999 | – | 25.55
333.15 K, x1 = 0.8 | 1296.8 | –
333.15 K, x1 = 0.8995 | 1314.7 | –
333.15 K, x1 = 0.8998 | – | 25.83
333.15 K, x1 = 1 | 1332.8 | 25.73
338.15 K, x1 = 0.1003 | – | 21.68
338.15 K, x1 = 0.101 | 1185.9 | –
338.15 K, x1 = 0.2001 | – | 21.42
338.15 K, x1 = 0.201 | 1199.5 | –
338.15 K, x1 = 0.2997 | – | 21.57
338.15 K, x1 = 0.3002 | 1213.7 | –
338.15 K, x1 = 0.3999 | – | 21.63
338.15 K, x1 = 0.4006 | 1229.4 | –
338.15 K, x1 = 0.4996 | – | 21.39
338.15 K, x1 = 0.5009 | 1244.1 | –
338.15 K, x1 = 0.5991 | 1259.7 | 21.68
338.15 K, x1 = 0.6997 | – | 21.72
338.15 K, x1 = 0.7001 | 1279.5 | –
338.15 K, x1 = 0.7999 | – | 21.81
338.15 K, x1 = 0.8 | 1293.2 | –
338.15 K, x1 = 0.8995 | 1311.1 | –
338.15 K, x1 = 0.8998 | – | 22.08
338.15 K, x1 = 1 | 1329.2 | 21.98
343.15 K, x1 = 0.1003 | – | 18.71
343.15 K, x1 = 0.101 | 1182.4 | –
343.15 K, x1 = 0.2001 | – | 18.51
343.15 K, x1 = 0.201 | 1196 | –
343.15 K, x1 = 0.2997 | – | 18.64
343.15 K, x1 = 0.3002 | 1210.3 | –
343.15 K, x1 = 0.3999 | – | 18.68
343.15 K, x1 = 0.4006 | 1225.9 | –
343.15 K, x1 = 0.4996 | – | 18.5
343.15 K, x1 = 0.5009 | 1240.6 | –
343.15 K, x1 = 0.5991 | 1256.2 | 18.74
343.15 K, x1 = 0.6997 | – | 18.78
343.15 K, x1 = 0.7001 | 1276 | –
343.15 K, x1 = 0.7999 | – | 18.84
343.15 K, x1 = 0.8 | 1289.7 | –
343.15 K, x1 = 0.8995 | 1307.5 | –
343.15 K, x1 = 0.8998 | – | 19.06
343.15 K, x1 = 1 | 1325.5 | 18.95
